{"source": "patent US6469028B1", "about": "“Synthesis and use of retinoid compounds having negative hormone and/or anatgonist activities” (Allergan, Inc., priority 1995, dated 2002)", "key": {"[1]": {"target": "T1, RAR-α and RXR-α with DR-5 RARE probe (Homo sapiens, UniProt P10276)", "T1 construct": "made in house; host or cells: reticulocyte lysate in vitro transcription-translation", "T1 sequence (P19793 whole entry partner, one chain of several)": "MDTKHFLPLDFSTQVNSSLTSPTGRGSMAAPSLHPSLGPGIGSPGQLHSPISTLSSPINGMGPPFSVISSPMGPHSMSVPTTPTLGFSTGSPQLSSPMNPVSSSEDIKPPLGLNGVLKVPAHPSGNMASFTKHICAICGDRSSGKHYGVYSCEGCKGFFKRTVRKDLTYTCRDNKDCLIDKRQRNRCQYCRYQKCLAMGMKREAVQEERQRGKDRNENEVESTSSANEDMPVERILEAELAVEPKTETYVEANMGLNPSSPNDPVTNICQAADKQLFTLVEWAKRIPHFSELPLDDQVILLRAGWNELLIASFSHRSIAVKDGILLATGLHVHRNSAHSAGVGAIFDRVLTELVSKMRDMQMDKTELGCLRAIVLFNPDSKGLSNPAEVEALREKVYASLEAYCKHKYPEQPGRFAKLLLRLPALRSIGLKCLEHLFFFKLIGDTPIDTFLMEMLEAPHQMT", "assay": "Example 9: gel shift analysis", "format": "biochemical", "conditions": "prebound with AGN 193109 (10^−6 M)", "description": "In vitro translated RAR-α was produced essentially as described under Example 8, except that ^35S-labeled methoinine was omitted. In vitro translated RXR-α was similarly produced using a pBluescript(II)(SK)-based vector containing the RXR-α cDNA described by Mangelsdorf, et al. in Nature 345:224-229 (1990) as the template for generating in vitro transcripts. […] The binding mixture was electrophoresed on a non-denaturing polyacrylamide gel and autoradiographed according to standard laboratory procedures. A single retarded species appearing on the autoradiograph that was common to all the lanes on the gel represented an undefined probe-binding factor present in the reticulocyte lysate. Only the RAR/RXR combination gave rise to a retinoid receptor-specific retarded species. Neither RAR alone nor RXR alone bound the probe to produce this shifted species."}, "[2]": {"system": "tissue transglutaminase (TGase) gene in HL-60 cells", "assay": "TGase activity in HL-60 cells", "format": "cell-based", "conditions": "TGase induced by RXR agonists", "description": "This same mechanism can account for the observation that AGN 193109 can repress the activity of the tissue transglutaminase (TGase) gene in HL-60 cells. A retinoid response element consisting of three canonical retinoid half sites spaced by 5 and 7 base pairs has been identified in the transcription control region of this gene. While TGase can be induced by RXR-selective agonists, it is not responsive to RAR-selective agonists. The TGase retinoid response element is bound by an RAR/RXR heterodimer (Davies et al. in Press). […] This AGN 193109 mediated repression can be accounted for by the ability of this negative hormone to sequester NCPs to the RAR component of the heterodimer, thereby repressing the activity of the associated RXR."}, "RARγ [3]": {"target": "T2, RARγ (Homo sapiens, UniProt P13631)", "T2 sequence (P13631 1-454)": "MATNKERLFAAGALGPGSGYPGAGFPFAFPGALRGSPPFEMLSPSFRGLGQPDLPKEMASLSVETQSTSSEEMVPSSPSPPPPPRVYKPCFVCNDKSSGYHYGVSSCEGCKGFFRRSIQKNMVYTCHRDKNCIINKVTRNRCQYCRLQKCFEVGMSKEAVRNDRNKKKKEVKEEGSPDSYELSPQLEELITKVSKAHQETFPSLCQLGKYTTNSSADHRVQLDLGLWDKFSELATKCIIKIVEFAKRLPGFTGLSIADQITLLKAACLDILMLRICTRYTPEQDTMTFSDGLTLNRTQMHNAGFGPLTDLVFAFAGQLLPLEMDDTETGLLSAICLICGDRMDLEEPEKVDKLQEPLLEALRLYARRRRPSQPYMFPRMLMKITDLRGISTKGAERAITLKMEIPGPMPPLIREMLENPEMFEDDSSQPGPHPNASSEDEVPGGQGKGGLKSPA", "assay": "Example 16: transactivation, MTV-TREp-Luc in HeLa cells", "format": "cell-based"}, "ECE16-1 cells": {"system": "ECE16-1 cells", "assay": "Example 17: EGF dependent proliferation of ECE16-1 cells", "format": "cell-based", "procedure": "ECE16-1 cells were seeded at a density of 1×10^4 cells per cm^2 in complete medium containing DMEM:F12 (3:1), nonessential amino acids, 5% FBS, 5 μg/ml transferring, 2 nM of 3,3′,5 triiodothyronine (thyroid hormone or “T3”), 0.1 nNM cholera toxin, 2 mM L-glutamine, 1.8×10^−4 M adenine and 10 ng/ml EGF. Cells were allowed to attach to plates overnight and then shifted to defined medium containing DMEM:F12 (3:1), 2 mM L-glutamine, nonessential amino acids, 0.1% bovine serum albumin, 1.8×10^−4 M adenine, 5 μg/ml transferring, 2 nM T3, 50 μg/ml ascorbic acid, 100 ug/ml streptomycin, 100 units/ml penicillin and 50 μg/ml gentamicin. Defined medium (DM) was supplemented with 10 ng/ml EGF. […] After three days of treatment, cells were harvested as described by Hembree et al. in Cancer Res. 54:3160 (1994) and cell numbers determined using a COULTER counter."}, "[4]": {"system": "patients having retinal detachment resulting from PVR", "conditions": "40 mg oral AGN 193109 + 4 mg oral 13-cis retinoic acid twice daily for four weeks"}, "ER-RXR-α": {"system": "ER-RXR-α", "assay": "Example 11: ER-RXR-α alone, ERE-tk-Luc, CV-1 cells"}, "RARα": {"target": "T3, RARα (Homo sapiens, UniProt P10276)", "T3 sequence (P10276 1-462)": "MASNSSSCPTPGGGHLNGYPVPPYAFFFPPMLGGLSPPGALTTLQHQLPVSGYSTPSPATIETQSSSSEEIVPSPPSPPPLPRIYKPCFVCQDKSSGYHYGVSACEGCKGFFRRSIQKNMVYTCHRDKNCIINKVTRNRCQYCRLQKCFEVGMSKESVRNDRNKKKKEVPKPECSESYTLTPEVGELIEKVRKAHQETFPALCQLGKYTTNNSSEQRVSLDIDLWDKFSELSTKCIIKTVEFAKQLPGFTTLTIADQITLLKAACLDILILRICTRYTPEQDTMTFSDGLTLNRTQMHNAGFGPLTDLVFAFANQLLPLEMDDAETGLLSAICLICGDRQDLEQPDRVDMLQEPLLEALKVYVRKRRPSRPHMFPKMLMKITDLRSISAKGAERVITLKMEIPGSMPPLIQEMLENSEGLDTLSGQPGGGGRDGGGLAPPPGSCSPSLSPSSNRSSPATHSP", "assay": "[3H]-ATRA displacement assay, baculovirus expressed receptor", "format": "binding", "parameters": "made in house; host or cells: baculovirus expression system"}, "RARγ [5]": {"target": "T2, RARγ", "assay": "Transactivation in CV-1 cells, ΔMTV-TREp-Luc reporter", "format": "cell-based", "parameters": "expressed in transfected cells; host or cells: green monkey CV-1 cells", "conditions": "10^−9 to 10^−6 M, 18 hours"}}, "note": "Like-named read-outs stand apart in the source and are kept apart here."}
{"smiles": "Cc1ccc(C2=CCC(C)(C)c3ccc(C#Cc4ccc(C(=O)O)cc4)cc32)cc1", "note": "[Compound 60, 4-[(5,6-dihydro-5,5-dimethyl-8-(4-methylphenyl)-2-naphthalenyl)ethynyl]benzoic acid]", "values": [{"measurement": "RAR/RXR retarded species on DR-5 RARE probe", "setting": "[1]", "value": "did not diminish this interaction"}, {"measurement": "TGase activity", "setting": "[2]", "value": "able to repress TGase activity induced by RXR agonists"}, {"measurement": "inhibition of the response to 10^−9 M AGN 191183", "setting": "RARγ [3]; 10^−9 M AGN 193109, HeLa cells, preliminary experiments", "value": "relatively ineffective"}, {"measurement": "luciferase activity", "setting": "RARγ [3]; AGN 193109 10^−11 and 10^−10 M with AGN 191183 10^−10 or 10^−9 M", "value": "stimulation of luciferase activity over that of AGN 191183 alone"}, {"measurement": "EGF mediated proliferation", "setting": "ECE16-1 cells; 1000 nM AGN 193109 alone", "value": "no effect on the EGF mediated proliferation increase"}, {"measurement": "antagonism of AGN 191183 mediated growth inhibition", "setting": "ECE16-1 cells; AGN 193109 10 nM with 10 nM AGN 191183", "value": "approximately 50%"}, {"measurement": "antagonism of AGN 191183 antiproliferative effect", "setting": "ECE16-1 cells; ten-fold molar excess of AGN 193109 over 10 nM AGN 191183", "value": "completely reversed the antiproliferative effect of AGN 191183"}, {"measurement": "therapeutic outcome versus 40 mg oral 13-cis retinoic acid", "setting": "[4]", "value": "equal to or better than"}, {"measurement": "luciferase expression levels", "setting": "ER-RXR-α; cells transfected only with ER-RXR-α, AGN 193109 as high as 10^−6 M", "value": "approximately 8,000 rlu"}, {"measurement": "luciferase activity", "setting": "ER-RXR-α; reporter and chimeric receptor without RAR-γ-VP-16", "value": "did not exhibit any effect on luciferase activity"}, {"measurement": "Kd", "setting": "RARα; Table 11, read-out: Kd (nM) RAR-α", "value": 2, "unit": "nM"}, {"measurement": "Kd", "setting": "RARα; as stated in Example 8, read-out: Kd at RAR-α", "value": 10, "unit": "nM"}, {"measurement": "EC50 (nM) RAR-γ", "setting": "RARγ [5]", "value": "No Activity"}]}
